# Data: publication PMC8286817, “Identifying SARS-CoV-2 antiviral compounds by screening for small molecule inhibitors of Nsp14 RNA cap methyltransferase” (Biochemical Journal, 2021)
# Where two headings read alike, the source gives them in different places.
# Assays:
# SARS-CoV-2 [1] = assay: microbe, parasite or virus in culture; format: cell-based
# Vero E6 cells = assay: Cell viability by DNA staining (DRAQ7) in the viral infection assay; format: cell-based; details: 22 h post infection
# Method: We assayed expression of the viral N protein as a surrogate for viral replication by infecting cells with a constant amount of SARS-CoV-2 in the presence of inhibitor. We then quantified viral replicative capacity in fixed cells 22 h post-infection using a fluorescent anti-nucleoprotein antibody.
# 1.5 × 10^3 Vero E6 cells (NIBC, U.K.) resuspended in DMEM containing 10% FBS were seeded into each well of 96-well imaging plates (Greiner 655090) and cultured overnight at 37°C and 5% CO2. The next day, a 5× solution of compounds were generated by dispensing 10 mM stocks of compounds into a v-bottom 96-well plate (Thermo 249946) and back filling with DMSO to equalise the DMSO concentration in all wells using an Echo 550 (Labcyte) before resuspending in DMEM containing 10% FBS. […] Finally, the cells were infected by adding 20 µl of SARS-CoV2 with a final MOI of 0.5 PFU/cell. 22 h post infection, cells were fixed, permeabilised, and stained for SARS-CoV2 N protein using Alexa488-labelled-CR3009 antibody produced custom (see section for Recombinant mAb production) and cellular DNA using DRAQ7 (ABCAM). Whole-well imaging at 5× was carried out using an Opera Phenix (PerkinElmer) and fluorescent areas and intensity calculated using the Phenix-associated software Harmony (PerkinElmer).
# [2] = target: O-6′-methylguanine-DNA methyltransferase, MGMT; design: method as in PMID 16533784; details: read-out: IC50 against MGMT; cited from earlier work
# SARS-CoV-2 [3] = details: remdesivir at 1 µM and below; cited from earlier work
# [4] = target: nsp10–16 fusion 2′-O-methyltransferase (Severe acute respiratory syndrome coronavirus 2, UniProt P0DTD1); format: biochemical, SARS-CoV-2
# SIRT1 = tested on: SIRT1; design: method as in PMID 22331558; details: read-out: IC50 against SIRT1; cited from earlier work
# [5] = Severe acute respiratory syndrome coronavirus 2, Vero C1008, Vero E6 cells, MOI 0.5 PFU/cell, 22 h, in additional presence of 0.5 µM remdesivir, read-out: EC50 + Rem. of viral replication (viral nucleoprotein area)
# [6] = Vero E6 cells, 0.5 µM remdesivir versus compound alone
molecule,measurement,setting,value
Nc1nc(OCc2cc(Br)cs2)c2[nH]cnc2n1 [Lomeguatrib],EC50,"SARS-CoV-2 [1]; Severe acute respiratory syndrome coronavirus 2, Vero C1008, 22 h, read-out: EC50 of viral replication (viral nucleoprotein area)",59.8 µM
same,EC50,SARS-CoV-2 [1]; [5],44.1 µM
same,EC50 reduction when combined with remdesivir,SARS-CoV-2 [1]; [6],~27%
same,Cytotoxicity at effective / EC50 concentrations (DNA staining),Vero E6 cells,slight cytotoxicity
same,IC50,[2],~0.005 µM
N#Cc1ccc(N2N=C3c4ccc(C(=O)O)cc4CC[C@@H]3[C@@H]2C2CCCC2)cc1Cl [PF-03882845],EC50 reduction when combined with remdesivir,SARS-CoV-2 [1],~56%
same,EC50,SARS-CoV-2 [1]; read-out: EC50 + Rem. of viral replication (viral nucleoprotein area),4.79 µM
same,EC50,SARS-CoV-2 [1]; read-out: EC50 of viral replication (viral nucleoprotein area),11 µM
O=C(CCCN1CCC(O)(c2cccc(C(F)(F)F)c2)CC1)c1ccc(F)cc1 [Trifluperidol],EC50,SARS-CoV-2 [1]; [5],5.05 µM
same,EC50,"SARS-CoV-2 [1]; Severe acute respiratory syndrome coronavirus 2, Vero C1008, Vero E6 cells, MOI 0.5 PFU/cell, 22 h post infection, read-out: EC50 of viral replication (viral nucleoprotein area)",14.9 µM
same,EC50 reduction when combined with remdesivir,SARS-CoV-2 [1]; [6],~66%
same,Cytotoxicity at effective / EC50 concentrations (DNA staining),Vero E6 cells,little to no cytotoxicity
CCC(CC)COC(=O)[C@H](C)N[P@](=O)(OC[C@H]1O[C@@](C#N)(c2ccc3c(N)ncnn23)[C@H](O)[C@@H]1O)Oc1ccccc1 [remdesivir],Capacity to reduce viral titre in Vero E6 cells,SARS-CoV-2 [3],limited capacity to reduce viral titre
Nc1ncnc2c1ncn2[C@@H]1O[C@H](C[C@@H](N)CC[C@H](N)C(=O)O)[C@@H](O)[C@H]1O [sinefungin],Inhibition of nsp10–16 methyltransferase (normalised HTRF),[4],able to inhibit methyltransfer by nsp10–16
Inauhzin,EC50 reduction when combined with remdesivir,SARS-CoV-2 [1]; [6],no increased inhibitory capacity
same,EC50,"SARS-CoV-2 [1]; Vero E6 cells, MOI 0.5 PFU/cell, 22 h, in additional presence of 0.5 µM remdesivir, read-out: EC50 + Rem. of viral replication (viral nucleoprotein area)",11.2 µM
same,EC50,"SARS-CoV-2 [1]; Vero E6 cells, MOI 0.5 PFU/cell, 22 h post infection, read-out: EC50 of viral replication (viral nucleoprotein area)",13 µM
same,Cytotoxicity at effective / EC50 concentrations (DNA staining),Vero E6 cells,little to no cytotoxicity
same,IC50,SIRT1,~1 µM
